Blank lines part the entries; values can stand above or below the compound they belong to. Active and inactive are the calls of the source. Numbered stars: 1 amine (or outer) side, 2 acyl side, 3 side chain; on linkers, the order of the positions; unused ones are H or OH. Bridge positions count the residues as written; N and C are the ends. Square brackets hold non-standard residues; d marks the D form. Peptide text beside a SMILES is read from it. ξ: configuration not given here. X3 = NCCCC[C@H](N)CN([C@@H](CCCCN)C(=O)[*:2])[*:1]; NMeR = CN[C@@H](CCCNC(=N)N)C(=O)O; Aad = N[C@@H](CCCC(=O)O)C(=O)O; Tle = CC(C)(C)[C@H](N)C(=O)O; ξP = O=C(O)C1CCCN1
Key:
[1] = Induction of hypothermia in Sprague-Dawley rat assessed as drop in body temperature at 30 microg/kg, IT measured every 10 mins upto 60 mins by thermistor probe analysis; conditions: in vivo, icv_or_intrathecal, 0.03 mg/kg, dose 30 µg/kg
[2] = biological target: T1, Neurotensin receptor type 2 (Homo sapiens, UniProt O95665); experiment: Binding affinity to NTS2 (unknown origin)
T1 sequence (O95665 whole entry): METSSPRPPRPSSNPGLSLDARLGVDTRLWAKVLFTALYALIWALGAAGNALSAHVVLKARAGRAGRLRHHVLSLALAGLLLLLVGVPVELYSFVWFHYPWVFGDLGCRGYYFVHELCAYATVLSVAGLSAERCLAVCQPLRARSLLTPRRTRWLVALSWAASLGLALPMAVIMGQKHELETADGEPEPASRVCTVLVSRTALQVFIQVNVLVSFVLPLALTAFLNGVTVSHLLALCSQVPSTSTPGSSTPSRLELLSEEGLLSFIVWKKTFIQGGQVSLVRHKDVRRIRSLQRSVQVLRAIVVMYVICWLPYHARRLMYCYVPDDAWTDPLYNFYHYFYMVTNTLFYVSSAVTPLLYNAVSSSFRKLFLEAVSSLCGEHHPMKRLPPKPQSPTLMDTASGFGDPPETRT

[3] = biological target: Neurotensin receptor type 1 (Mus musculus, UniProt O88319); experiment: Displacement of [3H]-neurotensin from NTS1 in mouse brain membrane incubated for 30 mins by liquid scintillation counter analysis; type: cell membranes
Sequence of Neurotensin receptor type 1 (Mus musculus, UniProt O88319) (O88319 whole entry): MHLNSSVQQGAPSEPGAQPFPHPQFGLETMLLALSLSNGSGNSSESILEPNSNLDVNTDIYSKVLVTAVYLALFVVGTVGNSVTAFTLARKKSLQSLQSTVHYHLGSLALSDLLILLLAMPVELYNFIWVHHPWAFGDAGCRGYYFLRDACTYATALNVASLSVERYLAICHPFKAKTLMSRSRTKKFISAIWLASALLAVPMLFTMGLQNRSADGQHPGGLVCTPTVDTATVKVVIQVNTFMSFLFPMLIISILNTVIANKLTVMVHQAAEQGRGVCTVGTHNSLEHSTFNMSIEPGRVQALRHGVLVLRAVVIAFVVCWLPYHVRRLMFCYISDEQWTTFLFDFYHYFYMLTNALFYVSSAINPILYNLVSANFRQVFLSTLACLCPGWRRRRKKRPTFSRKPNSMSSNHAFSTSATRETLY

Rattus norvegicus [4] = experiment: Antinociceptive activity in Sprague-Dawley rat model assessed as maximum possible effect at 150 microg/kg, IT measured every 10 mins for 60 mins by radiant heat tail-flick test relative to control; type: functional; conditions: dose 150 µg/kg, 1 h
Rattus norvegicus [5] = experiment: Antinociceptive activity in Sprague-Dawley rat model assessed as maximum possible effect at 90 microg/kg, IT measured every 10 mins for 60 mins by radiant heat tail-flick test relative to control; type: functional; conditions: dose 90 µg/kg, 1 h
[6] = Cardiotoxicity in Sprague-Dawley rat assessed as decrease in mean arterial blood pressure at 0.01 to 1 mg/kg, iv measured up to 1000 seconds; type: toxicity, organism-based; conditions: in vivo, dose 0.01-1 mg/kg, time <=1000 sec
[7] = Stability of compound in rat CSF assessed as half life at 1 mM incubated for 24 hrs by UPLC-MS analysis; type: ADME, tissue-based, Cerebrospinal fluid
Rattus norvegicus [8] = experiment: Antinociceptive activity in Sprague-Dawley rat model assessed as increased in tail withdrawal latency administered intrathecally measured every 10 mins for 60 mins by radiant heat tail-flick test; type: functional, organism-based; conditions: dose 10-150 µg/kg
Rattus norvegicus [9] = experiment: Antiallodynic activity in Sprague-Dawley rat model of complete Freund's adjuvant-induced chronic inflammatory pain assessed as increase in paw withdrawl threshold at 150 microg/kg, IT dosed on day 7 and 14 measured at 15 to 120 mins post dose relative to control; type: functional; conditions: dose 150 µg/kg; time 7-14 day
Rattus norvegicus [10] = experiment: Antinociceptive activity in Sprague-Dawley rat model of formalin-induced nociception pain assessed as reduction in pain behaviour by measuring less lifting of formalin injected hind paw during inflammatory phase at 30 to 150 microg/kg, IT; type: functional, organism-based; conditions: dose 30-150 µg/kg, time 21-60 min
Rattus norvegicus [11] = experiment: Antinociceptive activity in Sprague-Dawley rat model assessed as maximum possible effect at 60 microg/kg, IT measured every 10 mins for 60 mins by radiant heat tail-flick test relative to control; type: functional; conditions: dose 60 µg/kg, 1 h
Rattus norvegicus [12] = experiment: Antinociceptive activity in Sprague-Dawley rat model assessed as maximum efficacy causing increase in tail withdrawal latency administered intrathecally measured every 10 mins for 60 mins by radiant heat tail-flick test; type: functional; conditions: 1 h
[13] = Stability of compound in rat plasma assessed as half life at 1 mM incubated for 1 to 20 mins by UPLC-MS analysis; type: ADME, cell-free; conditions: time 1-20 min
[14] = Induction of hypothermia in Sprague-Dawley rat assessed as reduction in body temperature at 150 microg/kg, IT measured every 10 mins upto 60 mins by thermistor probe analysis; conditions: in vivo, icv_or_intrathecal, 0.15 mg/kg, dose 150 µg/kg
[15] = Cardiotoxicity in Sprague-Dawley rat assessed as induction of […] at 1 mg/kg, iv measured up to 1000 seconds; type: toxicity, organism-based; conditions: in vivo, 0.2778 h, time 1000 sec
Ileum = experiment: Myorelaxant activity in Sprague-Dawley rat ileum assessed as reduction in carbachol-induced contractions at 10 ^-11 to 10^-5 M by force transducer relaxation assay; type: tissue-based; conditions: dose lower 1e-05 µM, dose upper 10 µM
Rattus norvegicus [16] = experiment: Antinociceptive activity in Sprague-Dawley rat model assessed as effective dose administered intrathecally and co-treated with opioid antagonist naloxone and measured every 10 mins for 60 mins by radiant heat tail-flick test; type: functional, organism-based
[17] = biological target: T1, Neurotensin receptor type 2; experiment: Displacement of [125I]Tyr3-neurotensin from human recombinant NTS2 stably expressed in human 1321N1 cell membranes incubated for 60 mins by gamma counter analysis; set-up: species or system Cell membrane
[18] = Cardiotoxicity in Sprague-Dawley rat assessed as decrease in mean arterial blood pressure at 0.1 mg/kg, iv measured up to 1000 seconds; type: toxicity, organism-based; conditions: in vivo, time <=1000 sec
Rattus norvegicus [19] = experiment: Antinociceptive activity in Sprague-Dawley rat model assessed as maximum possible effect at 30 microg/kg, IT measured every 10 mins for 60 mins by radiant heat tail-flick test relative to control; type: functional; conditions: dose 30 µg/kg, 1 h
Rattus norvegicus [20] = experiment: Antinociceptive activity in Sprague-Dawley rat model assessed as effective dose administered intrathecally and measured every 10 mins for 60 mins by radiant heat tail-flick test; type: functional; conditions: central, 1 h
[21] = biological target: T2, Neurotensin receptor type 1 (Homo sapiens, UniProt P30989); experiment: Displacement of [125I]Tyr3-neurotensin from human recombinant NTS1 stably expressed in CHO-K1 cell membranes incubated for 60 mins by gamma counter analysis; set-up: species or system Cell membrane
T2 sequence (P30989 whole entry): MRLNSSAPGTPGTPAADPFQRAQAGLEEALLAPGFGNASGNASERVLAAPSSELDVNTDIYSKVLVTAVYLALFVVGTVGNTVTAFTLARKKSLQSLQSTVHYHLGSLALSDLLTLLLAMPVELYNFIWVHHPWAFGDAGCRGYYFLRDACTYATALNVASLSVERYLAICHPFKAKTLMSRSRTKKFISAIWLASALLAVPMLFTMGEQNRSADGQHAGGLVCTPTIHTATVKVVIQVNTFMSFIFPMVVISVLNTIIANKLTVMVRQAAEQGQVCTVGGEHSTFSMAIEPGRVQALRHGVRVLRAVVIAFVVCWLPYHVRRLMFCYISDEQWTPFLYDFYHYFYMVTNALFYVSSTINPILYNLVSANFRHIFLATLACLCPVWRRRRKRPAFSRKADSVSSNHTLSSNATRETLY

Rattus norvegicus [22] = experiment: Antinociceptive activity in Sprague-Dawley rat model assessed as maximum possible effect at 10 microg/kg, IT measured every 10 mins for 60 mins by radiant heat tail-flick test relative to control; type: functional; conditions: dose 10 µg/kg, 1 h
Rattus norvegicus [23] = experiment: Antinociceptive activity in Sprague-Dawley rat model of formalin-induced nociception pain assessed as reduction in pain behaviour by measuring less lifting of formalin injected hind paw during acute phase at 30 to 150 microg/kg, IT measured for 9 mins; type: functional, organism-based; conditions: dose 30-150 µg/kg
[24] = biological target: T2, Neurotensin receptor type 1; experiment: Displacement of [3H]-neurotensin from NTS1 in human HT-29 cell membrane incubated for 20 mins by liquid scintillation counter analysis; type: cell membranes

SMILES: CCOC(=O)[C@H](CC(C)C)NC(=O)[C@@H](NC(=O)[C@H](Cc1c[nH]c2ccccc12)NC(=O)[C@@H]1CCCN1C(=O)[C@H](CCCCN)NC[C@@H](N)CCCCN)C(C)(C)C (H-[X3]PW[Tle]L-OEt)
- deltaT [1]: 3 °C

SMILES: CC[C@H](C)[C@H](NC(=O)[C@@H]1Cc2ccc(O)c(c2)C/C=C/CCCCCCC(=O)N[C@@H](CCCCN)C(=O)N2CCC[C@H]2C(=O)N1)C(=O)N[C@@H](CC(C)C)C(=O)O
- Ki [2]: > 0.001 µM

SMILES: CC(C)C[C@H](NC(=O)[C@@H]1CCCC(=O)N[C@@H](CCCNC(=N)N)C(=O)N[C@@H](CCCCN)C(=O)N2CCC[C@H]2C(=O)N[C@@H](Cc2c[nH]c3ccccc23)C(=O)N1)C(=O)O (RKPW[Aad]L-OH; lactam N-5)
- Ki [3]: 16 nM

SMILES: CC(C)C[C@H](NC(=O)[C@H](Cc1ccc(O)cc1)NC(=O)[C@@H]1C/C=C\C[C@H](N)C(=O)N[C@@H](CCCCN)C(=O)N[C@@H](CCCCN)C(=O)N1)C(=O)O
- MPE (Rattus norvegicus [4]): 98.5%
- MPE (Rattus norvegicus [5]): 98.6%
- Activity [6]: Non-Toxic
- half-life at 1000 µM [7]: > 1440 min
- Activity (Rattus norvegicus [8]): Dose-dependent effect
- Activity (Rattus norvegicus [9]): <=45%
- Activity (Rattus norvegicus [10]): Active
- MPE (Rattus norvegicus [11]): 73.1%
- Emax (Rattus norvegicus [12]): 90 µg/kg
- half-life at 1000 µM [13]: 15 min
- Activity [14]: Non-Toxic
- Activity [15]: Toxic
- Activity (Ileum): Non-Toxic
- Activity (Rattus norvegicus [16]): Active
- Ki [17]: 50 nM
- Activity [18]: Non-Toxic
- MPE (Rattus norvegicus [19]): 32.5%
- ED50 (Rattus norvegicus [20]): 0.0438 mg/kg
- Ki [21]: > 100 µM
- MPE (Rattus norvegicus [22]): 13.1%
- Activity (Rattus norvegicus [23]): Active

SMILES: CC(C)C[C@@H]1NC(=O)[C@H](C(C)(C)C)NC(=O)[C@H](Cc2c[nH]c3ccccc23)NC(=O)[C@@H]2CCCN2C(=O)[C@H](CCCCN)NC(=O)[C@H](CCCNC(=N)N)NC1=O (cyclo(KPW[Tle]LR))
- Ki [3]: 410 nM

Next, values leading:

- Ki [2]: 11 µM
SMILES: CC[C@H](C)[C@H](NC(=O)[C@@H]1Cc2ccc(O)c(c2)C/C=C/CNCCCC[C@H](N)C(=O)N[C@@H](CCCCN)C(=O)N2CCC[C@H]2C(=O)N1)C(=O)N[C@@H](CC(C)C)C(=O)O

- Ki [24]: 3.5 µM
SMILES: CC(C)C[C@H](NC(=O)[C@@H]1CCC(=O)NCC(=O)N(C)[C@@H](CCCNC(=N)N)C(=O)N[C@@H](CCCCN)C(=O)N2CCCC2C(=O)N[C@@H](Cc2c[nH]c3ccccc23)C(=O)N1)C(=O)O (some centres not stated) (G[NMeR]K[ξP]WEL-OH; lactam N-6)

Source: ChEMBL document CHEMBL4732177 (J Med Chem, 2021)
